These are literature values, as cited in publication PMC10268011 (ACS Omega, 2023).

SMILES strings stand for the structures.

As to `COc1ccc(COc2ccc(Cc3cnc(N)nc3N)cc2OC)cc1` [GW2580, 5-(3-Methoxy-4-((4-Methoxybenzyl)Oxy)Benzyl)Pyrimidine-2,4-Diamine], the systemic bioavailability result was “high systemic bioavailability”.
